One data set concerns HEK293 cells. In words: Evaluation of cytotoxicity inhibition: hydrogen peroxide cytotoxicity against HEK293 cells in the presence of EGT-X (WST-1). Type of data set: cell-based. As to conditions: hydrogen peroxide 0.0015%, cultured 24 hours, WST-1 cell viability. The protocol: After 24 hours, 50 µL each of EGT-X dissolved in a DMEM and hydrogen peroxide dissolved in a DMEM was added to the plate, so that the hydrogen peroxide concentration would be 0 for the control and 0.0015% for the others, and the EGT-X concentration would be those shown in Figures (Figures 5 and 6). […] The absorbance at 450 nm was measured.

The nature of data set [1]: Evaluation of hydrogen peroxide removal (OxiSelect hydrogen peroxide assay kit, ADHP/HRP fluorescence). In kind it is biochemical. As to conditions: as the amount of Compound A increased (doubling dilutions from 10 µM); 4 µM hydrogen peroxide solution; 30 minutes at room temperature; control (Compound A: 0 µM) set as 100%. The protocol:
The resulting Compound A (EGT-X) was subjected to several doubling dilutions from 10 µM with the buffer provided with a kit (OxiSelect hydrogen peroxide assay kit (manufactured by CELL BIOLABS, Inc.)), and 25 µL each of the resulting solutions was added to a 96 well plate. Also, a 4 µM solution in which hydrogen peroxide was diluted with the buffer provided with the kit was prepared, and 25 µL each of said solution was added to the 96 well plate. Further, a blank was prepared under the same conditions except for no hydrogen peroxide was added.
Subsequently, according to the protocol described in the kit, 50 µL each of a mixture of ADHP (10-acetyl-3,7-dihydroxyphenoxazine) and HRP(horseradish peroxidase) provided with the kit was added thereto, and the resulting mixture was stirred. After incubated at room temperature for 30 minutes, the fluorescence intensity was measured under the condition of excitation wavelength of 530 nm and fluorescence wavelength of 590 nm. The blank value was subtracted from each measurement value to calculate each value. The percentage values when EGT-X was added were calculated based on the control (Compound A: 0 µM) value set as 100%, and the results were plotted in a graph. (Figures 3 and 4).

Each structure is given as a SMILES string.

Regarding `C[N+](C)(C)[C@@H](Cc1c[nH]c(Sc2[nH]c(=S)[nH]c2C[C@@H](C(=O)[O-])[N+](C)(C)C)n1)C(=O)[O-]` [Compound A], in the data set on HEK293 cells, the “concentration of EGT-X in the presence of which the cytotoxicity caused by hydrogen peroxide was inhibited” value is on record as no less than 125 µM. The “amount of the residual hydrogen peroxide” value in data set [1] was “decreased”.

The values above are taken from patent EP4729511A1, “COMPOUND OR SALT THEREOF AND METHOD FOR PRODUCING SAME, COMPOSITION, HYDROGEN PEROXIDE REMOVER, AND CYTOTOXICITY INHIBITOR” (Nagase & Co., Ltd., priority 2023, dated 2024).
